From ChEMBL document CHEMBL4340562, “Discovery of novel pyridazine derivatives as glucose transporter type 4 (GLUT4) translocation activators” (Bioorg Med Chem Lett, 2019) come the findings set out here.

SMILES strings stand for the structures. Active and inactive are the calls of the source. The rule behind the calls is not given here.

Data set [1] concerns the target T1, Solute carrier family 2, facilitated glucose transporter member 4 (Rattus norvegicus) (UniProt P19357).
T1 sequence (whole entry): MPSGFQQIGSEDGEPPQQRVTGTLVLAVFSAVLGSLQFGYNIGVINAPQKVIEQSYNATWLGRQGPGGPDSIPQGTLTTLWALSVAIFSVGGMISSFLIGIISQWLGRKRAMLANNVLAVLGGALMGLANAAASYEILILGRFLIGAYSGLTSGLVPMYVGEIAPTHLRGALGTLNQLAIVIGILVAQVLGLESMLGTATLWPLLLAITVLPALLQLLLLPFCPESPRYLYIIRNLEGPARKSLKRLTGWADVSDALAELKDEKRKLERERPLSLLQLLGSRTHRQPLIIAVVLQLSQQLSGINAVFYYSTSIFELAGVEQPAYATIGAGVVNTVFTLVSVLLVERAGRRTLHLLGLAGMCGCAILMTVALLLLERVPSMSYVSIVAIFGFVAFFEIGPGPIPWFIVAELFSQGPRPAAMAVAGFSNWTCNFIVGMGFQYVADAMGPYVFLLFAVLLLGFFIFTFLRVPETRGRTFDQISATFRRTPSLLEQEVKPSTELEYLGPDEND
The experiment in a line: Induction of GLUT4 translocation in rat L6-GLUT4myc differentiated myotube cells at 3 uM after 20 mins by chemiluminescent method relative to 30 uM 2-(4-(4-(2-methoxyphenyl)-6,7-dihydro-5H-cyclopenta[d]pyridazin-1-ylamino)phenyl)acetamide.

The target of data set [2] is T1, Solute carrier family 2, facilitated glucose transporter member 4 (Rattus norvegicus). The experiment in a line: Induction of GLUT4 translocation in rat L6-GLUT4myc differentiated myotube cells at 30 uM after 20 mins by chemiluminescent method relative to 30 uM 2-(4-(4-phenylphthalazin-1-ylamino)phenyl)acetamide.
Data set [3] is described as follows: 1-octanol/PBS distribution co-efficient, log D of the compound at pH 7.4. The data set is classed as physicochemical.
Data set [4] can be described thus: Stability of the compound in mouse liver microsomes assessed as parent compound remaining after 30 mins relative to control. The data set is classed as ADME, Microsome. The note with it: read-out: Stability. (In general: Liver microsomes are a subcellular fraction often used to study metabolism.)
In data set [5] the test system is Mus musculus. The experiment in a line: Antidiabetic activity in db/db mouse assessed as reduction in fasting plasma glucose level at 3 mg/kg, po measured up to 4 hrs. The data set is classed as functional.
The subject of data set [6] is Mus musculus. In words: Antidiabetic activity in db/db mouse assessed as reduction in fasting plasma glucose level at 10 mg/kg, po measured up to 4 hrs. It is filed as functional.
Data set [7] has as its system Mus musculus. In words: Antidiabetic activity in db/db mouse assessed as reduction in fasting plasma glucose level at 30 mg/kg, po measured up to 4 hrs. It is filed as functional.
The subject of data set [8] is Mus musculus. In words: Antidiabetic activity in db/db mouse assessed as reduction in fasting plasma glucose AUC at 3 mg/kg, po measured up to 4 hrs. The data set is classed as functional, organism-based. Set-up: dose 3 mg/kg, time < 4 hr.
The test system of data set [9] is Mus musculus. The experiment in a line: Antidiabetic activity in db/db mouse assessed as reduction in fasting plasma glucose AUC at 10 mg/kg, po measured up to 4 hrs. The data set is classed as functional, organism-based. On the set-up: dose 10 mg/kg, time < 4 hr.
Data set [10] deals with Mus musculus. The experiment in a line: Antidiabetic activity in db/db mouse assessed as reduction in fasting plasma glucose AUC at 30 mg/kg, po measured up to 4 hrs. Set-up: dose 30 mg/kg, time < 4 hr. The data set is classed as functional, organism-based.
The nature of data set [11]: Cmax in db/db mouse plasma at 3 mg/kg, po measured up to 4 hrs. It is filed as ADME, organism-based. On the set-up: dose 3 mg/kg, route oral.
Data set [12] can be described thus: Cmax in db/db mouse plasma at 10 mg/kg, po measured up to 4 hrs. The data set is classed as ADME, organism-based. Set-up: dose 10 mg/kg, route oral.
Data set [13] can be described thus: Cmax in db/db mouse plasma at 30 mg/kg, po measured up to 4 hrs. The data set is classed as ADME, organism-based. On the set-up: dose 30 mg/kg, route oral.
Data set [14] can be described thus: AUC (0 to 4 hrs) in db/db mouse plasma at 3 mg/kg, po measured up to 4 hrs. The data set is classed as ADME, organism-based. Set-up: dose 3 mg/kg, time < 4 hr, route oral.
Data set [15] is described as follows: AUC (0 to 4 hrs) in db/db mouse plasma at 10 mg/kg, po measured up to 4 hrs. It is filed as ADME, organism-based. On the set-up: dose 10 mg/kg, time < 4 hr, route oral.
Data set [16] is described as follows: AUC (0 to 4 hrs) in db/db mouse plasma at 30 mg/kg, po measured up to 4 hrs. It is filed as ADME, organism-based. On the set-up: time < 4 hr, dose 30 mg/kg, route oral.
The subject of data set [17] is Mus musculus. The experiment in a line: Antidiabetic activity in db/db mouse assessed as reduction in fasting plasma glucose level at 3 to 30 mg/kg, po measured up to 4 hrs. The data set is classed as functional, organism-based.
The nature of data set [18]: Cmax in db/db mouse plasma at 3 to 30 mg/kg, po measured up to 4 hrs. The data set is classed as ADME, organism-based. The following applies: in vivo.
Data set [19] can be described thus: AUC (0 to 4 hrs) in db/db mouse plasma at 3 to 30 mg/kg, po measured up to 4 hrs. The data set is classed as ADME, organism-based. The note with it: in vivo.
The target in data set [20] is T1, Solute carrier family 2, facilitated glucose transporter member 4 (Rattus norvegicus). In words: Induction of GLUT4 translocation in rat L6-GLUT4myc differentiated myotube cells at 3 uM after 20 mins by chemiluminescent method relative to 2-(4-(4-(2-methoxyphenyl)phthalazin-1-ylamino)phenyl)acetamide.
For data set [21] the target is unchanged. In words: Potency index, ratio of EC50 for 2-(4-(4-(2-methoxyphenyl)-6,7-dihydro-5H-cyclopenta[d]pyridazin-1-ylamino)phenyl)acetamide EC50 to EC50 for test compound for GLUT4 translocation activity in L6-GLUT4myc differentiated myotube cells.

Regarding `COc1ccccc1-c1nnc(Nc2ccc(CC(N)=O)cc2)c2oc(C)cc12`, the “fold change (FC)” value in data set [1] was “inactive”.

`COc1ccccc1-c1nnc(Nc2ccc(CC(N)=O)cc2)c2ccccc12`: the fold change (FC) in data set [2] stood at 2.7.

Take `Cc1cccc(-c2nnc(Nc3ccc(CC(N)=O)cc3)c3ccccc23)c1`: the fold change (FC) in [2] amounted to 1.3. A word on the logD: it is the decadic logarithm of the distribution of all forms, ionised or not, between an organic phase and buffer at a given pH. High values mean a more lipophilic compound, low ones a more hydrophilic compound. Regarding `CC(C)(C)NC(=O)NCCOCCOc1ccccc1-c1nnc(Nc2ccc(CC(N)=O)cc2F)c2ccsc12`, in data set [3], the log distribution coefficient (logD) was 2.9. In data set [4], the remaining at 0.5 h was 2%. As to `COc1ccc(-c2nnc(Nc3ccc(CC(N)=O)cc3)c3ccccc23)cc1`, in [2], the “fold change (FC)” value was “inactive”. As to `COc1ccccc1-c1nnc(Nc2ccc(C(C)(C)C(N)=O)cc2)c2c1CCC2`, the fold change (FC) in data set [1] came to 0.3. Consider `CC(C)(C)OC(=O)NCCOCCOc1ccccc1-c1nnc(Nc2ccc(CC(N)=O)cc2F)c2ccsc12`, for which, in [3], the log distribution coefficient (logD) came out at 3.2. Besides, the remaining at 0.5 h in data set [4] turned out to be 15%. Consider `COc1ccccc1-c1nnc(Nc2ccc(CC(N)=O)cc2F)c2c1CCC2`, for which the fold change (FC) in data set [1] came out at 0.85. On the same count and under the same terms, under `COc1ccccc1-c1nnc(Nc2ccc(CC(N)=O)cc2O)c2c1CCC2` stands 0.09. In the case of `COc1ccccc1-c1nnc(Nc2ccc(CC(N)=O)cc2Cl)c2c1CCC2`, in data set [1], the fold change (FC) is 0.45.

In the case of `COc1ccccc1-c1nnc(Nc2ccc(CC(N)=O)c(F)c2)c2c1CCC2`, in data set [1], the fold change (FC) worked out at 0.56.

The Cmax is the highest concentration seen after dosing. What is called AUC(0-t) is the area under the concentration-time curve up to a stated or last time point. A low value points to low exposure. In data set [3], `COCCOc1ccccc1-c1nnc(Nc2ccc(CC(N)=O)cc2F)c2ccsc12` came in with a logD of 2.1. The remaining at 0.5 h in [4] was 66%. The Emax with Mus musculus [5] was 220 mg/dL; in the data set with Mus musculus [6], 393 mg/dL; in the data set on Mus musculus [7] it was 435 mg/dL. For the same molecule, the AUC is 644 mg/dl.hr with Mus musculus [8], 1160 mg/dl.hr in the data set on Mus musculus [9], 1210 mg/dl.hr in the data set with Mus musculus [10] and “Dose-dependent effect” in data set [19]. Moreover, the Cmax in data set [11] is 3.38 µM; in data set [12], 4 µM; in data set [13] it was 4.38 µM; in data set [18] it was “Dose-dependent effect”. In addition, the figures for the AUC(0-t) at 4 h in data set [14], in data set [15] and in data set [16] were 9.01 µM·h, 10.6 µM·h and 12.6 µM·h, respectively. For the same molecule, the Activity entry in the data set on Mus musculus [17] is “Dose-dependent effect”. Turning to `COc1ccccc1-c1nnc(Nc2ccc(CS(N)(=O)=O)cc2)c2c1CCC2`, the fold change (FC) in data set [1] came to 0.09.

Consider `COc1ccccc1-c1nnc(Nc2ccc(CC(N)=O)cc2)c2sccc12`, for which the fold change (FC) in [1] is 0.67. The same measure, in the same setting: to `COc1cc(CC(N)=O)ccc1Nc1nnc(-c2ccccc2OC)c2c1CCC2` belongs 0.13; to `COc1ccccc1-c1nnc(Nc2ccc(CC(N)=O)cc2C)c2c1CCC2`, 0.52. As for `COc1ccccc1-c1nnc(Nc2ccc(CC(N)=O)cc2)c(C)c1C`, in data set [2], the fold change (FC) came out at 3.7. Turning to `COc1ccccc1-c1nnc(Nc2ccc(CC(N)=O)cc2)c2ccsc12`, the fold change (FC) in data set [1] was determined as 0.97. Same read-out and setting: under `COc1ccccc1-c1nnc(Nc2ccc(CC(N)=O)cc2C(F)(F)F)c2c1CCC2` stands 0.12. For the molecule `COc1cccc(-c2nnc(Nc3ccc(CC(N)=O)cc3)c3ccccc23)c1`, the fold change (FC) in [2] is 1. Take `CCc1c(Nc2ccc(CC(N)=O)cc2)nnc(-c2ccccc2OC)c1CC`: in [2], the “fold change (FC)” value was “inactive”.

Consider `COc1ccccc1-c1nnc(Nc2ccc(CC(N)=O)c(C)c2)c2c1CCC2`, for which the fold change (FC) in data set [1] was 0.36. As for `COc1ccccc1-c1nnc(Nc2ccc(CC(N)=O)cc2)c2c1CCC2`, the fold change (FC) in data set [2] stood at 4.7; in data set [20], 2. The molecule also gave a logD in data set [3] of 2.3. In data set [4], the remaining at 0.5 h was found to be 90%. `NC(=O)Cc1ccc(Nc2nnc(-c3ccccc3OCc3cscn3)c3sccc23)c(F)c1`: the logD in data set [3] was 2.6. For the same molecule, the remaining at 0.5 h in data set [4] was found to be 79%. Take `COc1ccccc1-c1nnc(Nc2ccc(C3(C(N)=O)CC3)cc2)c2c1CCC2`: the fold change (FC) in [1] came out at 0.37. Consider `COc1ccccc1-c1nnc(Nc2ccc(CC(N)=O)cc2F)c2ccsc12`, for which the logD in data set [3] was 2.6. Moreover, the remaining at 0.5 h in data set [4] was found to be 92%. Further, in data set [21], the Ratio EC50 turned out to be 7. For the molecule `COc1ccccc1-c1nnc(Nc2ccc(C(N)=O)cc2)c2c1CCC2`, the fold change (FC) in data set [1] was 0.1. On to `COc1ccccc1-c1nnc(Nc2ccc(CC(=O)N(C)C)cc2)c2c1CCC2`, for which the fold change (FC) in data set [1] came out at 0.09. For the molecule `CCc1ccccc1-c1nnc(Nc2ccc(CC(N)=O)cc2)c2ccccc12`, the fold change (FC) in data set [2] came out at 1.7. `COc1ccccc1-c1nnc(Nc2ccc(CC(N)=O)cc2)c2occc12`: the fold change (FC) in data set [1] came to 0.46. Still for that read-out and setting: to `COc1ccccc1-c1nnc(Nc2ccc(CC(N)=O)cc2)c2ccoc12` belongs 0.33; to `COc1ccccc1-c1nnc(Nc2ccc(CCC(N)=O)cc2)c2c1CCC2`, “inactive”; to `COc1ccccc1-c1nnc(Nc2cccc(CC(N)=O)c2)c2c1CCC2`, 0.04. Take `Cc1ccccc1-c1nnc(Nc2ccc(CC(N)=O)cc2)c2ccccc12`: the fold change (FC) in [2] is 1.6. Turning to `COc1ccccc1-c1nnc(Nc2ccc(CC(N)=O)cc2)c2c1CCCC2`, the fold change (FC) in data set [2] is 0.9.

As for `NC(=O)Cc1ccc(Nc2nnc(-c3ccccc3OCC3COCCO3)c3sccc23)c(F)c1` (stereo unspecified), the pH-dependent lipophilicity (logD) in data set [3] is 1.8. In data set [4], the remaining at 0.5 h is greater than 100%. Taken in the same sequence, the figures for `COCCOCCOc1ccccc1-c1nnc(Nc2ccc(CC(N)=O)cc2F)c2ccsc12` were 1.8 and 82%. In data set [3], `NC(=O)Cc1ccc(Nc2nnc(-c3ccccc3OCc3ccccn3)c3sccc23)c(F)c1` displayed a logD of 2.9. Besides, the remaining at 0.5 h in data set [4] was 19%. For `CNC(=O)Cc1ccc(Nc2nnc(-c3ccccc3OC)c3c2CCC3)cc1`, the fold change (FC) in data set [1] was found to be 0.08.
